EC (1.5-fold) and maximal fold induction data for twelve compounds are collected here from patent US11827646B2, “Compounds for treating spinal muscular atrophy” (Hoffmann-La Roche Inc., priority 2014, dated 2023).

The subject of test [1] is full length SMN2 minigene mRNA (HEK293H cells stably transfected with SMN2-A minigene). Description: SMN2 minigene mRNA splicing RT-qPCR assay in cultured cells. The class given is cell-based. The note with it: Homo sapiens, HEK293-H, 24 hours, 7-point concentration curve, 1.5-fold increase relative to vehicle, read-out: EC1.5x minigene (EC1.5x concentration for production of full length SMN2 minigene mRNA). The text has this: The term “EC1.5x concentration for production of full length SMN2 minigene mRNA” (or “EC1.5x minigene”) is defined as that concentration of test compound that 1 s effective m increasing the amount of full length SMN2 minigene mRNA to a level 1.5-fold greater relative to that in vehicle-treated cells.
The reverse transcription-quantitative PCR-based (RT-qPCR) assay is used to quantify the level of the full length SMN2 minigene (referred to herein by the term “FL SMN2mini”) mRNA containing SMN2 exon 7 in a HEK293H cell line stably transfected with said minigene and treated with a test compound. Materials used and respective sources are listed below in Table 1.
The SMN2-A minigene construct was prepared as described in International Patent Application WO2009/151546A1 page 145 paragraph [00400] to page 147 paragraph [00412](incl. FIG. 1 and FIG. 3 therein).
HEK293H cells stably transfected with the SMN2-A minigene construct (10,000 cells/well) are seeded in 200 μL of cell culture medium (DMEM plus 10% FBS, with 200 μg/mL hygromycin) in 96-well flat-bottom plates and the plate is immediately swirled to ensure proper dispersal of cells and the formation of an even monolayer of cells. Cells are allowed to attach for 6 hours. Test compounds are serially diluted 3.16-fold in 100% DMSO to generate a 7-point concentration curve. A solution of test compound (1 μL, 200× in DMSO) is added to each cell-containing well and the plate is incubated for 24 hours in a cell culture incubator (37° C., 5% CO2, 100% relative humidity). 2 replicates are prepared for each test compound concentration. The cells are then lysed in the Cells-To-Ct lysis buffer and the lysate is stored at −80° C.
Full length SMN2-A minigene and GAPDH mRNA are quantified using the primers and probes referenced in Table 2. Primer SMN Forward A (SEQ ID NO.1) hybridizes to a nucleotide sequence in exon 7 (nucleotide 22 to nucleotide 40), primer SMN Reverse A (SEQ ID NO.2) hybridizes to a nucleotide sequence in the coding sequence of Firefly luciferase, SMN Probe A (SEQ ID NO.3) hybridizes to a nucleotide sequence in exon 7 (nucleotide 50 to nucleotide 54) and exon 8 (nucleotide 1 to nucleotide 21). The combination of these three oligonucleotides detects only SMN1 or SMN2 minigenes (RT-qPCR) and will not detect endogenous SMN1 or SMN2 genes.
The SMN forward and reverse primers are used at final concentrations of 0.4 μM. The SMN probe is used at a final concentration of 0.15 μM. The GAPDH primers are used at final concentrations of 0.2 μM and the probe at 0.15 μM.
The SMN2-minigene GAPDH mix (15 μL total volume) is prepared by combining 7.5 μL of 2×RT-PCR buffer, 0.4 μL of 25×RT-PCR enzyme mix, 0.75 μL of 20×GAPDH primer-probe mix, 4.0075 μL of water, 2 μL of 10-fold diluted cell lysate, 0.06 μL of 100 µM SMN forward primer, 0.06 μL of 100 μM SMN reverse primer, and 0.225 μL of 100 μM SMN probe.
PCR is carried out at the following temperatures for the indicated time: Step 1: 48° C. (15 min); Step 2: 95° C. (10 min); Step 3: 95° C. (15 sec); Step 4: 60° C. (1 min); then repeat Steps 3 and 4 for a total of 40 cycles.
Each reaction mixture contains both SMN2-A minigene and GAPDH primers/probe sets (multiplex design), allowing simultaneous measurement of the levels of two transcripts.
The increase in the abundance of the FL SMN2mini mRNA relative to that in cells treated with vehicle control is determined from real-time PCR data using a modified ΔΔCt method (as described in Livak and Schmittgen, Methods, 2001, 25:402-8). The amplification efficiency E is calculated from the slope of the amplification curve for FL SMN2mini and GAPDH individually. The abundance of FL SMN2mini and GAPDH mRNA are then calculated as (1+E)^−Ct, where Ct is the threshold value for each amplicon. The abundance of FL SMN2mini mRNA is normalized to GAPDH mRNA abundance. […]
(Real-time PCR tracks product formation cycle by cycle.)

The subject of test [2] is SMN protein in SMA patient fibroblast cells (GM03813). Description: SMN protein assay in cultured cells (SMN HTRF). The class given is cell-based. The note with it: Homo sapiens, SMA Type 1 patient fibroblasts, 48 hours; for EC (1.5-fold): 7-point concentration curve, 1.5 times SMN protein vs vehicle, read-out: EC1.5x SMN protein (EC1.5x concentration for SMN protein expression); for maximal fold induction: fold increase relative to vehicle control, read-out: max. fold increase of SMN protein. The method in brief:
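SMA patient fibroblasts (5,000/well, DMEM-10% FBS) treated 48 h at 37° C with 7-point, 3.16-fold dilution series, in triplicate; lysates read by anti-SMN HTRF (665/620 nm ratio). Fold SMN over vehicle derived from blank-corrected ΔF; EC1.5x is the concentration giving 1.5-fold SMN versus vehicle.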
A general note: In TR-FRET formats the signal depends on donor and acceptor labels being close together.

Molecules are shown by their SMILES.

Turning to `Cc1cn2nc(-c3cc(=O)n4cc(N5CCNC6(CC6)C5)cc(C)c4n3)cc(C)c2n1` [Example 28, 7-(4,7-diazaspiro[2.5]octan-7-yl)-2-(2,8-dimethylimidazo[1,2-b]pyridazin-6-yl)-9-methyl-pyrido[1,2-a]pyrimidin-4-one], the EC (1.5-fold) is 0.005 µM in test [1] and 0.0497 µM in test [2]. Also, the maximal fold induction in test [2] was determined as 1.72.

Consider `Cc1cn2nc(-c3cc(=O)n4cc(N5C[C@H](C)N[C@@H](C)C5)ccc4n3)cc(C)c2n1` [Example 29, 2-(2,8-dimethylimidazo[1,2-b]pyridazin-6-yl)-7-[(3S,5S)-3,5-dimethylpiperazin-1-yl]pyrido[1,2-a]pyrimidin-4-one], for which the EC (1.5-fold) in test [1] came out at 0.0003 µM. Also, in test [2], the EC (1.5-fold) was found to be 0.0021 µM and the maximal fold induction stood at 1.81.

Consider `Cc1cn2nc(-c3cc(=O)n4cc(N5CC[C@H](N6CCCC6)C5)ccc4n3)cc(C)c2n1` [Example 30, 2-(2,8-dimethylimidazo[1,2-b]pyridazin-6-yl)-7-[(3S)-3-pyrrolidin-1-ylpyrrolidin-1-yl]pyrido[1,2-a]pyrimidin-4-one], for which the values for the EC (1.5-fold) in test [1] and in test [2] were 0.003 µM and 0.0136 µM, respectively. Also, in test [2], the maximal fold induction is 1.84.

`Cc1cn2nc(-c3cc(=O)n4cc(N5CC[C@H](N6CCCC6)C5)ccc4n3)ccc2n1` [Example 31, 2-(2-methylimidazo[1,2-b]pyridazin-6-yl)-7-[(3S)-3-pyrrolidin-1-ylpyrrolidin-1-yl]pyrido[1,2-a]pyrimidin-4-one]: the EC (1.5-fold) in test [1] was 0.0067 µM; in test [2], 0.0277 µM. For the same compound, in test [2], the maximal fold induction was determined as 1.65.

`Cc1cn2nc(-c3cc(=O)n4cc(N5C[C@H](C)N[C@@H](C)C5)ccc4n3)ccc2n1` [Example 32, 7-[(3S,5S)-3,5-dimethylpiperazin-1-yl]-2-(2-methylimidazo[1,2-b]pyridazin-6-yl)pyrido[1,2-a]pyrimidin-4-one]: in test [1], the EC (1.5-fold) is 0.0016 µM. In test [2], the EC (1.5-fold) stood at 0.004 µM and the maximal fold induction was 1.88.

As for `Cc1cn2nc(-c3cc(=O)n4cc(N5CCN[C@@H](C)C5)cc(C)c4n3)ccc2n1` [Example 33, 9-methyl-2-(2-methylimidazo[1,2-b]pyridazin-6-yl)-7-[(3S)-3-methylpiperazin-1-yl]pyrido[1,2-a]pyrimidin-4-one], in test [1], the EC (1.5-fold) stood at 0.0005 µM. For the same compound, in test [2], the EC (1.5-fold) was 0.004 µM and the maximal fold induction amounted to 1.82.

`Cc1cn2nc(-c3cc(=O)n4cc(N5CCN[C@H](C)C5)cc(C)c4n3)ccc2n1` [Example 34, 9-methyl-2-(2-methylimidazo[1,2-b]pyridazin-6-yl)-7-[(3R)-3-methylpiperazin-1-yl]pyrido[1,2-a]pyrimidin-4-one]: the EC (1.5-fold) in test [1] is 0.0009 µM. For the same compound, in test [2], the EC (1.5-fold) amounted to 0.0044 µM and the maximal fold induction was found to be 1.89.

Turning to `Cc1cn2nc(-c3cc(=O)n4cc(N5C[C@@H](C)N[C@@H](C)C5)cc(C)c4n3)ccc2n1` [Example 35, 7-[(3R,5S)-3,5-dimethylpiperazin-1-yl]-9-methyl-2-(2-methylimidazo[1,2-b]pyridazin-6-yl)pyrido[1,2-a]pyrimidin-4-one], the EC (1.5-fold) in test [1] amounted to 0.0047 µM. In test [2], the EC (1.5-fold) was 0.0195 µM and the maximal fold induction came out at 1.79.

In the case of `Cc1cn2nc(-c3cc(=O)n4cc(N5CCNC(C)(C)C5)cc(C)c4n3)ccc2n1` [Example 36, 7-(3,3-dimethylpiperazin-1-yl)-9-methyl-2-(2-methylimidazo[1,2-b]pyridazin-6-yl)pyrido[1,2-a]pyrimidin-4-one], the EC (1.5-fold) in test [1] was 0.005 µM. Besides, in test [2], the EC (1.5-fold) came out at 0.0344 µM and the maximal fold induction stood at 1.77.

Consider `Cc1cn2nc(-c3cc(=O)n4cc(N5CCNC6(CC6)C5)cc(C)c4n3)ccc2n1` [Example 37, 7-(4,7-diazaspiro[2.5]octan-7-yl)-9-methyl-2-(2-methylimidazo[1,2-b]pyridazin-6-yl)pyrido[1,2-a]pyrimidin-4-one], for which, in test [1], the EC (1.5-fold) came out at 0.0044 µM. For the same compound, in test [2], the EC (1.5-fold) was 0.045 µM and the maximal fold induction came to 1.87.

In the case of `Cc1cn2nc(-c3cc(=O)n4cc(N5C[C@H](C)N[C@@H](C)C5)cc(C)c4n3)ccc2n1` [Example 38, 7-[(3S,5S)-3,5-dimethylpiperazin-1-yl]-9-methyl-2-(2-methylimidazo[1,2-b]pyridazin-6-yl)pyrido[1,2-a]pyrimidin-4-one], the EC (1.5-fold) in test [1] turned out to be 0.0003 µM. Besides, in test [2], the EC (1.5-fold) stood at 0.0031 µM and the maximal fold induction was determined as 1.85.

For the compound `CC[C@@H]1CN(c2ccc3nc(-c4ccc5nc(C)cn5n4)cc(=O)n3c2)CCN1` [Example 39, 7-[(3R)-3-ethylpiperazin-1-yl]-2-(2-methylimidazo[1,2-b]pyridazin-6-yl)pyrido[1,2-a]pyrimidin-4-one], in test [1], the EC (1.5-fold) was 0.0009 µM. Further, in test [2], the EC (1.5-fold) worked out at 0.0158 µM and the maximal fold induction was determined as 1.81.
